Literature values in patent publication US9182414B2, “Methods for identifying a GLP-1 secretagogue” (Arena Pharmaceuticals, Inc., priority 2005, dated 2015).
Square brackets hold non-standard residues; d marks the D form. Peptide text beside a SMILES is read from it. * marks the point of attachment. NHPhenethyl = c1ccc(CCN*)cc1; Nphe = O=C(O)CNCc1ccccc1; PhAc = O=C(Cc1ccccc1)*; βAla = NCCC(=O)O

molecular target: T1, BRS-3 (Homo sapiens, UniProt P32247); conditions: BRS-3 over GRP-R and NMB-R; description taken from literature
T1 sequence (P32247 1-399): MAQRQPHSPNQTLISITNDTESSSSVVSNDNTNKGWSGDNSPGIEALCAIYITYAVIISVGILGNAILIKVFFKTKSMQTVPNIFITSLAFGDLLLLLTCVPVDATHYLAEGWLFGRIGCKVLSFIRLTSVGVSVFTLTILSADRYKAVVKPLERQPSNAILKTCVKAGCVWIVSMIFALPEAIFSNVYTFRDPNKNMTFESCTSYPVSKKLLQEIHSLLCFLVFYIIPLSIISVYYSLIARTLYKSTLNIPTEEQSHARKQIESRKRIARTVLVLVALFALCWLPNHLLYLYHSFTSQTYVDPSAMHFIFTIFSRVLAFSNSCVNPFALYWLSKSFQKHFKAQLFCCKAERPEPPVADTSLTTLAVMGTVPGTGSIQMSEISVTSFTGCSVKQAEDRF

Row | Compound | selectivity as BRS-3 agonist
1 | NC(=O)CC[C@H](NC(=O)CCc1ccc(Cl)cc1)C(=O)N[C@H](Cc1c[nH]c2ccccc12)C(=O)NCCc1ccccc1 [Compound 1, N1-{(1R)-2-(1H-3-Indolyl)-1-[1-(2-phenylethyl)carbamoyl]ethyl}-(2S)-2-[1-(2-(4-chlorophenyl)ethyl)carboxamido]pentanediamide] | selective BRS-3 agonists
2 | NC(=O)CC[C@H](NC(=O)Cc1cc2ccccc2[nH]1)C(=O)N[C@H](Cc1c[nH]c2ccccc12)C(=O)NCCc1ccccc1 [Compound 2, N1-{(1R)-2-(1H-3-Indolyl)-1-[1-(2-phenylethyl)carbamoyl]ethyl}-(2S)-2-[(1H-2-indolylmethyl)carboxamido]pentanediamide] | selective BRS-3 agonists
3 | C[C@H](NC(=O)Cc1ccccc1)C(=O)N[C@H](Cc1c[nH]c2ccccc12)C(=O)NCCc1ccccc1 [Compound 3, N1-(2-Phenylethyl)-(2R)-2-{[(1S)-1-(benzylcarboxamido)ethyl]carboxamido}-3-(1H-3-indolyl)propanamide] (PhAc-Ala-[dW]-NHPhenethyl) | selective BRS-3 agonists
4 | C[C@H](NC(=O)Cc1ccc(Cl)cc1)C(=O)N[C@H](Cc1c[nH]c2ccccc12)C(=O)NCCc1ccccc1 [Compound 4, N1-(2-Phenylethyl)-(2R)-2-{[(1S)-1-((4-chlorobenzyl)-carboxamido)ethyl]carboxamido}-3-(1H-3-indolyl)propanamide] | selective BRS-3 agonists
5 | C[C@H](NC(=O)Cc1ccc2c(c1)OCO2)C(=O)N[C@H](Cc1c[nH]c2ccccc12)C(=O)NCCc1ccccc1 [Compound 5, N1-(2-Phenylethyl)-(2R)-2-{[(1S)-1-((1,3-benzodioxol-5-ylmethyl)carboxamido)ethyl]carboxamido}-3-(1H-3-indolyl)propanamide] | selective BRS-3 agonists
6 | C[C@H](NC(=O)Cc1cccnc1)C(=O)N[C@H](Cc1c[nH]c2ccccc12)C(=O)NCCc1ccccc1 [Compound 6, N1-(2-Phenylethyl)-(2R)-2-{[(1S)-1-((3-pyridyl)methylcarboxamido)ethyl]carboxamido}-3-(1H-3-indolyl)propanamide] | selective BRS-3 agonists
7 | C[C@H](NC(=O)CC1NCCc2ccccc21)C(=O)N[C@H](Cc1c[nH]c2ccccc12)C(=O)NCCc1ccccc1 (stereo partly drawn) [Compound 7, N1-(2-Phenylethyl)-(2R)-2-{[(1S)-1-((1,2,3,4-tetrahydro-1-isoquinolinyl)methylcarboxamido)ethyl]carboxamido}-3-(1H-3-indolyl)propanamide] | selective BRS-3 agonists
8 | C[C@H](NC(=O)Cc1cc2ccccc2[nH]1)C(=O)N[C@H](Cc1c[nH]c2ccccc12)C(=O)NCCc1ccccc1 [Compound 8, N1-(2-Phenylethyl)-(2R)-2-{[(1S)-1-((1H2-indolyl)methylcarboxamido)ethyl]carboxamido}-3-(1H-3-indolyl)propanamide] | selective BRS-3 agonists
9 | O=C(CNCc1ccccc1)N[C@H](Cc1c[nH]c2ccccc12)C(=O)NCCc1ccccc1 [Compound 9, N1-(2-Phenylethyl)-(2R)-2-{[(benzyl)amino]methylcarboxamido}-3-(1H-3-indolyl)propanamide] (H-[Nphe]-[dW]-NHPhenethyl) | selective BRS-3 agonists
10 | O=C(CNCc1ccc(Cl)cc1)N[C@H](Cc1c[nH]c2ccccc12)C(=O)NCCc1ccccc1 [Compound 10, N1-(2-Phenylethyl)-(2R)-2-{[(4-chlorobenzyl)amino]-methylcarboxamido}-3-(1H-3-indolyl)propanamide] | selective BRS-3 agonists
11 | O=C(CNCc1cccnc1)N[C@H](Cc1c[nH]c2ccccc12)C(=O)NCCc1ccccc1 [Compound 11, N1-(2-Phenylethyl)-(2R)-2-{[(3-pyridyl)methylamino]-methylcarboxamido}-3-(1H-3-indolyl)propanamide] | selective BRS-3 agonists
12 | O=C(CNCCc1ccccc1)N[C@H](Cc1c[nH]c2ccccc12)C(=O)NCCc1ccccc1 [Compound 12, N1-(2-Phenylethyl)-(2R)-2-{[1-(2-phenylethyl)amino]-methylcarboxamido}-3-(1H-3-indolyl)propanamide] | selective BRS-3 agonists
13 | CC(NCc1ccccc1)C(=O)N[C@H](Cc1c[nH]c2ccccc12)C(=O)NCCc1ccccc1 (stereo partly shown) [Compound 13] | selective BRS-3 agonists
14 | CC(NCc1ccc(Cl)cc1)C(=O)N[C@H](Cc1c[nH]c2ccccc12)C(=O)NCCc1ccccc1 (stereo partly drawn) [Compound 14, N1-(2-Phenylethyl)-(2R)-2-{[1-((4-chlorobenzyl)amino)ethyl]carboxamido}-3-(1H-3-indolyl)propanamide] | selective BRS-3 agonists
15 | CC(NCCc1ccccc1)C(=O)N[C@H](Cc1c[nH]c2ccccc12)C(=O)NCCc1ccccc1 (stereo partly drawn) [Compound 15, N1-(2-Phenylethyl)-(2R)-2-{[1-(1-(2-phenylethyl)amino)ethyl]carboxamido}-3-(1H-3-indolyl)propanamide] | selective BRS-3 agonists
16 | O=C(NNC(=O)c1ccccc1)N[C@H](Cc1c[nH]c2ccccc12)C(=O)NCCc1ccccc1 [Compound 16, N1-(2-Phenylethyl)-(2R)-2-{{N′-(benzoyl)hydrazino]carboxamido}-3-(1H-3-indolyl)propanamide] | selective BRS-3 agonists

Row | Compound | selectivity as BRS-3 agonist
17 | O=C(NNC(=O)c1ccc(Cl)cc1)N[C@H](Cc1c[nH]c2ccccc12)C(=O)NCCc1ccccc1 [Compound 17, N1-(2-Phenylethyl)-(2R)-2-{{N′-(4-chlorobenzoyl)-hydrazino]carboxamido}-3-(1H-3-indolyl)propanamide] | selective BRS-3 agonists
18 | O=C(Cc1cccnc1)NNC(=O)N[C@H](Cc1c[nH]c2ccccc12)C(=O)NCCc1ccccc1 [Compound 18, N1-(2-Phenylethyl)-(2R)-2-{[N′-(2-(3-pyridyl)ethanoyl)hydrazino]carboxamido}-3-(1H-3-indolyl)propanamide] | selective BRS-3 agonists
19 | O=C(CC1NCCc2ccccc21)NNC(=O)N[C@H](Cc1c[nH]c2ccccc12)C(=O)NCCc1ccccc1 (stereo partly drawn) [Compound 19, N1-(2-Phenylethyl)-(2R)-2-{{N′-(2-(1,2,3,4-tetrahydro-1-isoquinolinyl)ethanoyl)hydrazino]carboxamido}-3-(1H-3-indolyl)propanamide] | selective BRS-3 agonists
20 | O=C(Cc1cc2ccccc2[nH]1)NNC(=O)N[C@H](Cc1c[nH]c2ccccc12)C(=O)NCCc1ccccc1 [Compound 20, N1-(2-Phenylethyl)-(2R)-2-{[N′-(2-(1H-2-indolyl)ethanoyl)hydrazino]carboxamido}-3-(1H-3-indolyl)propanamide] | selective BRS-3 agonists
21 | O=C(NN=Cc1ccccc1)N[C@H](Cc1c[nH]c2ccccc12)C(=O)NCCc1ccccc1 [Compound 21, N1-(2-Phenylethyl)-(2R)-2-{[N′-(phenylmethylene)-hydrazino]carboxamido}-3-(1H-3-indolyl)propanamide] | selective BRS-3 agonists
22 | O=C(NN=Cc1ccco1)N[C@H](Cc1c[nH]c2ccccc12)C(=O)NCCc1ccccc1 [Compound 22, N1-(2-Phenylethyl)-(2R)-2-{[N′-(furan-2-ylmethylene)hydrazino]carboxamido}-3-(1H-3-indolyl)propanamide] | selective BRS-3 agonists
23 | O=C(NNCc1ccccc1)N[C@H](Cc1c[nH]c2ccccc12)C(=O)NCCc1ccccc1 [Compound 23, N1-(2-Phenylethyl)-(2R)-2-{[N′-(benzyl)hydrazino]carboxamido}-3-(1H-3-indolyl)propanamide] | selective BRS-3 agonists
24 | O=C(NNCc1ccc(Cl)cc1)N[C@H](Cc1c[nH]c2ccccc12)C(=O)NCCc1ccccc1 [Compound 24, N1-(2-Phenylethyl)-(2R)-2-{[N′-(4-chlorobenzyl)hydrazino]carboxamido}-3-(1H-3-indolyl)propanamide] | selective BRS-3 agonists
25 | O=C(NNCc1ccco1)N[C@H](Cc1c[nH]c2ccccc12)C(=O)NCCc1ccccc1 [Compound 25, N1-(2-Phenylethyl)-(2R)-2-{[N′-(2-furylmethyl)hydrazino]carboxamido}-3-(1H-3-indolyl)propanamide] | selective BRS-3 agonists
26 | O=C(CN1CCN(Cc2ccccc2)CC1)N[C@H](Cc1c[nH]c2ccccc12)C(=O)NCCc1ccccc1 [Compound 26] | selective BRS-3 agonists
27 | O=C(CN1CCC(Cc2ccccc2)CC1)N[C@H](Cc1c[nH]c2ccccc12)C(=O)NCCc1ccccc1 [Compound 27, N1-(2-Phenylethyl)-(2R)-2-{[(4-benzylpiperidino)methyl]carboxamido}-3-(1H-3-indolyl)propanamide] | selective BRS-3 agonists
28 | Ac-FWAV[βAla]HRW-NH2 [Compound 33] | selective BRS-3 agonists
29 | Ac-Phe-Trp-Ala-His(τBzl)-Nip-Gly-Arg-NH2 [Compound 31] | selective BRS-3 agonists
30 | Ac-Phe-Trp-Ala-His(τBzl)-βAla-His-Arg-NH2 [Compound 32] | selective BRS-3 agonists
31 | [D-Tyr^6,βAla^11,Phe^13,Nle^14]Bombesin(6-14) [Compound 34] | non-selective for BRS-3 over GRP-R and NMB-R
